Several values for one entry are separate records, joined by “and”; a condition that tells them apart may be missing. Equal entries are not always repeated.
Experiments:
Format in all cases: in vivo
[1] = Sweetening synergy sensory test: concentration equisweet to sucrose reference solutions in water, expert panel; conditions: for Relative sweetening power: ratio sucrose concentration / equisweet concentration; for Equisweet concentration: room temperature
Procedure: A sensory test was performed to assess the sweetening synergism achieved with the composition of the invention (Examples A and B), and this effect was also compared to the effect obtained with analogous compositions containing beta-cyclodextrin (Comparative Examples A and B). Further compositions of the present invention (Examples C, D and E) were also assessed in this sensory test.
A group of expert panellists in sweet descriptors evaluated the sweetness of the different compositions as well as that of the ingredients NHDC, beta-cyclodextrin and gamma-cyclodextrin used alone.
Each evaluated sweetening agent was dissolved in water at different concentrations, at room temperature. The panel then determined, for each product, the concentration that was equisweet to the reference solutions of 1% and 3% sucrose in water. The results are summarized in Table 3 (Examples A and B are abbreviated as Ex. A and Ex. B, respectively, and the Comparative Examples A and B are abbreviated as Comp. A and Comp. B, respectively).
Since beta- and gamma-cyclodextrins are also sweet compounds, the equisweet concentrations of both cyclodextrins were also determined by the test panel to assess their possible contribution to the sweetness of the composition. […] Therefore, as the equisweet concentrations of both cyclodextrins are at least three orders of magnitude larger than those of NHDC, it was concluded that their contribution to the sweetness was negligible.
A more quantitative evaluation of the sweetness synergy provided by the compositions of the present invention was performed by comparing the real measured sweetness of the compositions comprising gamma-cyclodextrin and NHDC with the theoretical sweetness expected from the sum of the individual contribution of each component in the composition.
To this end, the relative sweetening power of each component was first calculated. For comparative purposes, the relative sweetening power of beta-cyclodextrin was also calculated. The relative sweetening power of a given compound, at a given sweetness level, indicates how many times sweeter this compound is than sucrose. It is therefore calculated as the ratio between the concentration of sucrose and the equisweet concentration of each ingredient, for each sweetness level.
From the relative sweetening power of each ingredient, it is possible to calculate the expected sweetness (sucrose equivalence) of a blend of those ingredients, according to Formula I:
Expected sweetness (sucrose equivalence) of a blend C1+C2=Concentration of compound C1×relative sweetening power of compound C1+Concentration of compound C2×relative sweetening power of compound C2
Then, the sweetness synergy of a blend of components can be calculated according to Formula II: […]
As disclosed above in Example 3, the relative sweetening power of a given compound, at a given sweetness level, indicates how many times sweeter than sucrose the compound is, and the value is calculated as the ratio between the concentration of sucrose and the equisweet concentration of the compound.

[2] = Sugar (HFCS) substitution in orange soft drink, triangular test by calibrated panel; conditions: orange soft drink sweetened with HFCS
Procedure: A reference orange soft drink sweetened with high fructose corn syrup (HFCS) was prepared, using the ingredients listed in Table 9 (Formula 1). All the percentages in the table are by weight.
For preparing the beverages, the following process was followed. The high fructose corn syrup was weighed in a 1 L beaker. The remaining minor ingredients (sodium benzoate, potassium sorbate, citric acid, orange soda colour and orange soda flavour) were separately weighed in small beakers, and water was added to each of the small beakers and mixed until solubilizing each ingredient. Once dissolved, all those minor ingredients were added to the 1 L beaker with the HFCS. The obtained solution was thoroughly mixed and water was added gradually to 1 Kg.
For assaying the possible substitution of HFCS with NHDC and with the composition of the present invention (Example B), a 0.1% mother solution of NHDC in water was prepared by gradually adding 0.1 g of NHDC to 99.9 g of water, mixing, and heating to 66° C. during 15 minutes until a yellowish solution was obtained; the solution was then left to cool to room temperature. […]
Maximum sugar substitution with NHDC was then determined by replacing increasing amounts of HFCS by NHDC and then passing the reference and the prototype through a triangular test by a calibrated panel.

[3] = Sucrose substitution in orange juice based soft drink, triangular testing by calibrated panel
Description: The purpose of this example was to maximize the sugar substitution in an orange juice based soft drink while maintaining the same overall taste profile. A calibrated panel was not able to distinguish the reference from the different prototypes in triangular testing.
The reference product (Formula 1 of Table 10) contained 10% added sucrose. The maximum sucrose substitution achieved with NHDC was 15% out of the initial 10 by using 10 ppm of NHDC (Formula 2 of Table 10). With the sweetening composition of the present invention, it was possible to increase the sucrose substitution, up to 25% without changing the taste profile of the beverage (Formula 3 of Table 10).
The composition of each beverage is disclosed in Table 10. For the preparation of these beverages, an orange juice concentrate 65° Bx (Dallant) and orange flavor #2N341/C (Dallant) were used. All the percentages in the table are by weight.

What does the source list for `COc1ccc(CCC(=O)c2c(O)cc(O[C@@H]3O[C@H](CO)[C@@H](O)[C@H](O)[C@H]3O[C@@H]3O[C@@H](C)[C@H](O)[C@@H](O)[C@H]3O)cc2O)cc1O` [NHDC, 1-[4-[[2-O-(6-Deoxy-α-L-mannopyranosyl)-β-D-glucopyranosyl]oxy]-2,6-dihydroxyphenyl]-3-(3-hydroxy-4-methoxyphenyl)propan-1-one]?
Relative sweetening power ([1]; 1% sucrose level): 2000; NHDC amount contained in the equisweet concentration ([1]; 1% sucrose sweetness level): (5.0) ppm; Relative sweetening power ([1]; 3% sucrose level): 1250; NHDC amount contained in the equisweet concentration ([1]; 3% sucrose sweetness level): (24.0) ppm; Equisweet concentration ([1]; equisweet to 1% sucrose in water): 5 ppm and 5.0 ppm; Equisweet concentration ([1]; equisweet to 3% sucrose in water): 24 ppm and 24.0 ppm; Amount needed to obtain 10% sugar substitution [2]: 10 ppm; Maximum sugar substitution without any noticeable difference in a triangular test [2]: 10%; Amount used for the maximum sucrose substitution [3]: 10 ppm; Maximum sucrose substitution without changing the taste profile ([3]; reference with 10% added sucrose): 15%
